Results: PubChem BioAssay AID256 (DTP/NCI, 2004)
Values joined by “and” are separate entries in the source; they are usually repeats but may differ in a detail not shown here. Identical values can stand only once. Toxic doses and inconclusive results are not listed.

Tested on: CD2F1 mice, L1210 leukemia ip, survival T/C
Assay: NCI In Vivo Anticancer Drug Screen. Data for tumor model L1210 Leukemia (intraperitoneal) in CD2F1 (CDF1) mice
Conditions: higher = longer survival
Procedure, shortened: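 Mice carrying a transplanted tumor received test compound or vehicle alone. The value is the measurement in the treated group divided by that in the vehicle-treated control group.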

[1] = endpoint: mean survival time, dose: 50.0 mg/kg/injection, schedule: Q01DX009 (ip), vehicle: saline
[2] = endpoint: mean survival time, dose: 100.0 mg/kg/injection, schedule: Q01DX009 (ip), vehicle: saline
[3] = endpoint: mean survival time, dose: 200.0 mg/kg/injection, schedule: Q01DX009 (ip), vehicle: saline
[4] = endpoint: mean survival time, dose: 100.0 mg/kg/injection, schedule: Q04DX003 (ip), vehicle: saline with Tween-80
[5] = endpoint: mean survival time, dose: 200.0 mg/kg/injection, schedule: Q04DX003 (ip), vehicle: saline with Tween-80
[6] = endpoint: mean survival time, dose: 400.0 mg/kg/injection, schedule: Q04DX003 (ip), vehicle: saline with Tween-80
[7] = endpoint: mean survival time, dose: 100.0 mg/kg/injection, schedule: Q01DX001 (ip), vehicle: saline with Tween-80
[8] = endpoint: mean survival time, dose: 200.0 mg/kg/injection, schedule: Q01DX001 (ip), vehicle: saline with Tween-80
[9] = endpoint: mean survival time, dose: 400.0 mg/kg/injection, schedule: Q01DX001 (ip), vehicle: saline with Tween-80

In the case of `C#CCC(O)CC` (stereo not given), the T/C [1] is reported as 103 % of control, the T/C [2] is reported as 107 % of control and the T/C [3] is reported as 103 % of control.

In the case of `O=C1OC2CCC13CCCCC3C2` (stereo not given), the T/C [4] is reported as 96 % of control, the T/C [5] is reported as 88 % of control and the T/C [6] is reported as 86 % of control.

With `C=C(Br)CN(CC)C(C)=O` the T/C (endpoint: mean survival time, dose: 12.5 mg/kg/injection, schedule: Q01DX009 (ip), vehicle: saline) was 102 % of control, the T/C (endpoint: mean survival time, dose: 12.5 mg/kg/injection, schedule: Q04DX003 (ip), vehicle: saline) was 96 % of control and the T/C (endpoint: mean survival time, dose: 25.0 mg/kg/injection, schedule: Q01DX009 (ip), vehicle: saline) was 97 % of control. The T/C (endpoint: mean survival time, dose: 25.0 mg/kg/injection, schedule: Q04DX003 (ip), vehicle: saline) was 95 % of control, the T/C [1] was 114 % of control and the T/C (endpoint: mean survival time, dose: 50.0 mg/kg/injection, schedule: Q04DX003 (ip), vehicle: saline) was 104 % of control.

For `Cc1cc(C)c(NC(=O)CC#N)cc1C`, the T/C (endpoint: mean survival time, dose: 25.0 mg/kg/injection, schedule: Q04DX003 (ip), vehicle: saline with Tween-80) was 113 % of control and 93 % of control, the T/C (endpoint: mean survival time, dose: 50.0 mg/kg/injection, schedule: Q04DX003 (ip), vehicle: saline with Tween-80) was 89 % of control and 103 % of control and the T/C [7] was 100 % of control. The T/C (endpoint: mean survival time, dose: 100.0 mg/kg/injection, schedule: Q04DX002 (ip), vehicle: saline with Tween-80) was 90 % of control, the T/C [8] was 102 % of control and the T/C (endpoint: mean survival time, dose: 200.0 mg/kg/injection, schedule: Q04DX002 (ip), vehicle: saline with Tween-80) was 102 % of control. The T/C [9] was 102 % of control, the T/C (endpoint: mean survival time, dose: 400.0 mg/kg/injection, schedule: Q04DX002 (ip), vehicle: saline with Tween-80) was 105 % of control and the T/C [6] was 93 % of control.

In the case of `CC(=O)N(C)C`, the T/C (endpoint: mean survival time, dose: 62.0 mg/kg/injection, schedule: Q01DX Z (ip), vehicle: saline) is reported as 92 % of control, the T/C (endpoint: mean survival time, dose: 112.0 mg/kg/injection, schedule: Q01DX009 (ip), vehicle: saline) is reported as 100 % of control and the T/C (endpoint: mean survival time, dose: 122.5 mg/kg/injection, schedule: Q01DX009 (ip), vehicle: saline) is reported as 91 % of control. For the same compound, the T/C (endpoint: mean survival time, dose: 125.0 mg/kg/injection, schedule: Q01DX Z (ip), vehicle: saline) was 96 % of control, the T/C (endpoint: mean survival time, dose: 225.0 mg/kg/injection, schedule: Q01DX009 (ip), vehicle: saline) was 95 % of control and 97 % of control and the T/C (endpoint: mean survival time, dose: 250.0 mg/kg/injection, schedule: Q01DX Z (ip), vehicle: saline) was 92 % of control. For the same compound, the T/C (endpoint: mean survival time, dose: 450.0 mg/kg/injection, schedule: Q01DX009 (ip), vehicle: saline) was 101 % of control and 103 % of control, the T/C (endpoint: mean survival time, dose: 500.0 mg/kg/injection, schedule: Q01DX Z (ip), vehicle: saline) was 102 % of control and the T/C (endpoint: mean survival time, dose: 900.0 mg/kg/injection, schedule: Q01DX009 (ip), vehicle: saline) was 89 % of control and 90 % of control. The T/C (endpoint: mean survival time, dose: 1800.0 mg/kg/injection, schedule: Q01DX009 (ip), vehicle: saline) was 117 % of control and 112 % of control.

For `CCOC(=O)CCC(N)C(=O)OCC` (stereo not given), the T/C (endpoint: mean survival time, dose: 100.0 mg/kg/injection, schedule: Q01DX001 (ip), vehicle: saline) was 95 % of control, the T/C (endpoint: mean survival time, dose: 200.0 mg/kg/injection, schedule: Q01DX001 (ip), vehicle: saline) was 88 % of control and the T/C (endpoint: mean survival time, dose: 400.0 mg/kg/injection, schedule: Q01DX001 (ip), vehicle: saline) was 93 % of control.

`[Cl][Mn][Cl]` was tested, and the T/C (endpoint: median survival time, dose: 8.0 mg/kg/injection, schedule: Q01DX009 (ip), vehicle: saline) was 92 % of control, the T/C (endpoint: median survival time, dose: 16.0 mg/kg/injection, schedule: Q01DX009 (ip), vehicle: saline) was 97 % of control and the T/C (endpoint: median survival time, dose: 32.0 mg/kg/injection, schedule: Q01DX009 (ip), vehicle: saline) was 103 % of control. The T/C (endpoint: median survival time, dose: 64.0 mg/kg/injection, schedule: Q01DX009 (ip), vehicle: saline) was 110 % of control.

For `O=C1N(CCc2ccccc2)CC2C(c3ccccc3)NNC12O` (stereo not given), the T/C [7] was 96 % of control, the T/C [8] was 87 % of control and the T/C [9] was 87 % of control.

For `O=P(Oc1ccccc1)(c1ccccc1)c1ccccc1`, the T/C [4] was 109 % of control, the T/C [5] was 95 % of control and the T/C [6] was 109 % of control.

For `O=c1cc(C(Cl)C2OC(CO)C(O)C2O)nc[nH]1` (stereo not given), the T/C (endpoint: median survival time, dose: 18.13 mg/kg/injection, schedule: Q01DX005 (ip), vehicle: saline) was 100 % of control, the T/C (endpoint: median survival time, dose: 36.25 mg/kg/injection, schedule: Q01DX005 (ip), vehicle: saline) was 98 % of control and the T/C (endpoint: median survival time, dose: 72.5 mg/kg/injection, schedule: Q01DX005 (ip), vehicle: saline) was 101 % of control. For the same compound, the T/C (endpoint: median survival time, dose: 145.0 mg/kg/injection, schedule: Q01DX005 (ip), vehicle: saline) was 103 % of control.

`Cc1ccc(S(=O)(=O)CN(O)C(N)=O)cc1` was tested, and the T/C (endpoint: mean survival time, dose: 7.5 mg/kg/injection, schedule: Q01DX009 (ip), vehicle: saline with Tween-80) was 93 % of control, the T/C (endpoint: mean survival time, dose: 15.0 mg/kg/injection, schedule: Q01DX009 (ip), vehicle: saline with Tween-80) was 102 % of control and the T/C (endpoint: mean survival time, dose: 30.0 mg/kg/injection, schedule: Q01DX009 (ip), vehicle: saline with Tween-80) was 93 % of control. For the same compound, the T/C (endpoint: mean survival time, dose: 60.0 mg/kg/injection, schedule: Q01DX009 (ip), vehicle: saline with Tween-80) was 107 % of control, the T/C (endpoint: mean survival time, dose: 120.0 mg/kg/injection, schedule: Q01DX009 (ip), vehicle: saline with Tween-80) was 105 % of control and the T/C (endpoint: mean survival time, dose: 240.0 mg/kg/injection, schedule: Q01DX009 (ip), vehicle: saline with Tween-80) was 115 % of control.

`C=C[CH2][Sn]([CH2]C=C)([c]1ccccc1)[c]1ccccc1` was tested, and the T/C (endpoint: mean survival time, dose: 6.25 mg/kg/injection, schedule: Q01DX009 (ip), vehicle: saline with Tween-80) was 89 % of control and the T/C (endpoint: median survival time, dose: 25.0 mg/kg/injection, schedule: Q04DX002 (ip), vehicle: saline with Tween-80) was 112 % of control.

For `Cc1cccc(C(=O)NN)c1`, the T/C (endpoint: mean survival time, dose: 75.0 mg/kg/injection, schedule: Q01DX001 (ip), vehicle: saline) was 106 % of control.

In the case of `CCCCC(CC)COP(OCC(CC)CCCC)OCC(CC)CCCC` (stereo not given), the T/C (endpoint: mean survival time, dose: 100.0 mg/kg/injection, schedule: Q01DX009 (ip), vehicle: saline with Tween-80) is reported as 92 % of control and the T/C (endpoint: mean survival time, dose: 200.0 mg/kg/injection, schedule: Q01DX009 (ip), vehicle: saline with Tween-80) is reported as 87 % of control.

With `O=c1[nH]n(Cc2ccccc2)c2ccccc12` the T/C (endpoint: mean survival time, dose: 25.0 mg/kg/injection, schedule: Q04DX003 (ip), vehicle: Klucel (hydroxypropylcellulose) (HPC)) was 101 % of control, the T/C (endpoint: mean survival time, dose: 50.0 mg/kg/injection, schedule: Q04DX003 (ip), vehicle: Klucel (hydroxypropylcellulose) (HPC)) was 106 % of control and the T/C (endpoint: mean survival time, dose: 100.0 mg/kg/injection, schedule: Q04DX003 (ip), vehicle: Klucel (hydroxypropylcellulose) (HPC)) was 106 % of control.

In the case of `O=c1[nH]c(NCCCCc2ccccc2)c(Br)c(=O)[nH]1`, the T/C [7] is reported as 91 % of control.

In the case of `CCSC(C(O)C(O)C(O)C(O)CO)n1cnc2c(=S)nc[nH]c21` (stereo not given), the T/C (endpoint: mean survival time, dose: 25.0 mg/kg/injection, schedule: Q01DX005 (ip), vehicle: water) is reported as 94 % of control, the T/C (endpoint: mean survival time, dose: 50.0 mg/kg/injection, schedule: Q01DX005 (ip), vehicle: water) is reported as 97 % of control and the T/C (endpoint: mean survival time, dose: 100.0 mg/kg/injection, schedule: Q01DX005 (ip), vehicle: water) is reported as 96 % of control. The T/C (endpoint: mean survival time, dose: 177.0 mg/kg/injection, schedule: Q01DX009 (ip), vehicle: saline with Tween-80) was 107 % of control, the T/C (endpoint: mean survival time, dose: 200.0 mg/kg/injection, schedule: Q01DX005 (ip), vehicle: water) was 96 % of control and the T/C (endpoint: mean survival time, dose: 265.0 mg/kg/injection, schedule: Q01DX009 (ip), vehicle: saline with Tween-80) was 102 % of control. The T/C (endpoint: mean survival time, dose: 600.0 mg/kg/injection, schedule: Q01DX009 (ip), vehicle: saline with Tween-80) was 150 % of control.

For `CC(C)N1C(=O)N(Cl)C2C1N(Cl)C(=O)N2Cl` (stereo not given), the T/C (endpoint: median survival time, dose: 1.5 mg/kg/injection, schedule: Q01DX009 (ip), vehicle: saline with Tween-80) was 101 % of control, the T/C (endpoint: median survival time, dose: 3.0 mg/kg/injection, schedule: Q01DX009 (ip), vehicle: saline with Tween-80) was 102 % of control and the T/C (endpoint: median survival time, dose: 6.0 mg/kg/injection, schedule: Q01DX009 (ip), vehicle: saline with Tween-80) was 93 % of control. For the same compound, the T/C (endpoint: median survival time, dose: 12.0 mg/kg/injection, schedule: Q01DX009 (ip), vehicle: saline with Tween-80) was 103 % of control, the T/C (endpoint: median survival time, dose: 24.0 mg/kg/injection, schedule: Q01DX009 (ip), vehicle: saline with Tween-80) was 104 % of control and the T/C (endpoint: median survival time, dose: 25.0 mg/kg/injection, schedule: Q01DX009 (ip), vehicle: saline with Tween-80) was 100 % of control.

In the case of `OCC(O)C(O)C(O)C(O)C(O)CO` (stereo not given), the T/C (endpoint: mean survival time, dose: 50.0 mg/kg/injection, schedule: Q01DX009 (ip), vehicle: Klucel (hydroxypropylcellulose) (HPC)) is reported as 98 % of control, the T/C (endpoint: mean survival time, dose: 100.0 mg/kg/injection, schedule: Q01DX009 (ip), vehicle: Klucel (hydroxypropylcellulose) (HPC)) is reported as 102 % of control and the T/C [2] is reported as 98 % of control. The T/C (endpoint: mean survival time, dose: 100.0 mg/kg/injection, schedule: Q04DX002 (ip), vehicle: saline) was 100 % of control, the T/C (endpoint: mean survival time, dose: 200.0 mg/kg/injection, schedule: Q01DX009 (ip), vehicle: Klucel (hydroxypropylcellulose) (HPC)) was 98 % of control and the T/C [3] was 91 % of control. The T/C (endpoint: mean survival time, dose: 200.0 mg/kg/injection, schedule: Q04DX002 (ip), vehicle: saline) was 107 % of control, the T/C (endpoint: mean survival time, dose: 400.0 mg/kg/injection, schedule: Q01DX009 (ip), vehicle: saline) was 102 % of control and the T/C (endpoint: mean survival time, dose: 400.0 mg/kg/injection, schedule: Q04DX002 (ip), vehicle: saline) was 96 % of control.
